Like-named read-outs stand apart in the source and are kept apart here.
Target: CFTR (Homo sapiens, UniProt P13569)
Assay: Membrane Potential Dye, Enteroid Assay B
Type: cell-based
In short: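 Human intestinal enteroid cells exposed to compound 18-24 h at 37 °C, then loaded with methyl oxonol membrane-potential dye plus CaCC blockers. Chloride transport triggered in chloride-free buffer with 10 μM forskolin, 100 μM IBMX, 300 nM Compound III; fluorescence read 15 min, expressed as % of triple-corrector/potentiator combination control.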

[1] = Table 10, read-out: Ent. B EC50

Chain of CFTR (P13569 with tags, fused parts or gaps DEL508-508): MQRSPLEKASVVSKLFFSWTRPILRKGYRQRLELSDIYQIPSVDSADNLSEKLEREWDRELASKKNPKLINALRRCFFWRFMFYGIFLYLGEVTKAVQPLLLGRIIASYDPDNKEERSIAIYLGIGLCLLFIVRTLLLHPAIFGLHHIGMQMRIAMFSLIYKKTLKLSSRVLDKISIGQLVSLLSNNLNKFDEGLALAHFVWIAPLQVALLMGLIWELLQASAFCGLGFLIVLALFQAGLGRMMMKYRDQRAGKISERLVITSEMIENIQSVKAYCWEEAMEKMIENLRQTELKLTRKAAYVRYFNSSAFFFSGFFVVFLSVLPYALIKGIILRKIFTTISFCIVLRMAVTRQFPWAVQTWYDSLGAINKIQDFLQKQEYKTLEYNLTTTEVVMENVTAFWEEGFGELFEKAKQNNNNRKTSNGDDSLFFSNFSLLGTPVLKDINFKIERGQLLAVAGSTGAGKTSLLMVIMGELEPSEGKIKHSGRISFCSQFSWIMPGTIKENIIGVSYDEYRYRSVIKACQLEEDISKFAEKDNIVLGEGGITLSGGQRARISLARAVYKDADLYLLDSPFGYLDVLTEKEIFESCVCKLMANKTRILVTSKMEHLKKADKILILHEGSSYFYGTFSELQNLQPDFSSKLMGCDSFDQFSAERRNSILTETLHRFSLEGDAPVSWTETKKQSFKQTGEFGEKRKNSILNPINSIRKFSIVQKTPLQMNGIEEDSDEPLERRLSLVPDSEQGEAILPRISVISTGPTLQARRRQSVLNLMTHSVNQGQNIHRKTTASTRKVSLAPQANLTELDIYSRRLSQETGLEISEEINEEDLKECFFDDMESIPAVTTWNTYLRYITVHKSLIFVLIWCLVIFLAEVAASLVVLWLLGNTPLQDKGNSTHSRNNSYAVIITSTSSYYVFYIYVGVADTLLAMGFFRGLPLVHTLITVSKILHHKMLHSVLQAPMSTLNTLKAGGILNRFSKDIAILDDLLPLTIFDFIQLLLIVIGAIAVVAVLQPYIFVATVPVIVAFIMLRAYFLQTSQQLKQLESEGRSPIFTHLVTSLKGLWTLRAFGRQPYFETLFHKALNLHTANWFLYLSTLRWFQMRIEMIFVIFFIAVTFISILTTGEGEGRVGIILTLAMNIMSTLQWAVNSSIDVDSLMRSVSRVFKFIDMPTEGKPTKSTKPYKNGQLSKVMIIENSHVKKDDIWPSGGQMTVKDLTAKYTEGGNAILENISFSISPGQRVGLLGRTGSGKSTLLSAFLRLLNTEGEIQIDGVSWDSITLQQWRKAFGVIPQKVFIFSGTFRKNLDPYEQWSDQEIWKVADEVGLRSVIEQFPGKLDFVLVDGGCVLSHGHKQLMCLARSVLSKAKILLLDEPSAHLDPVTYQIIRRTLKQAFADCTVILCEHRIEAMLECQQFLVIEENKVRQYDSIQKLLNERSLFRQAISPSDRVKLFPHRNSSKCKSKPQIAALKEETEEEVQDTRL

SMILES: Cc1cccc(C)c1-c1cc2nc(n1)NS(=O)(=O)c1cccc(c1)C(=O)N(c1cnn(C)c1)[C@H](CC(C)C)CO2 [Compound 97, (11R)-6-(2,6-Dimethylphenyl)-11-isobutyl-12-(1-methylpyrazol-4-yl)-2,2-dioxo-9-oxa-2λ^6-thia-3,5,12,19-tetrazatricyclo[12.3.1.14,8]nonadeca-1(18),4(19),5,7,14,16-hexaen-13-one]
- Ent. B Max Activity (%) (Table 10): +++ (+++ is >60%)
- EC50 [1]: < 1000 nM

SMILES: COCC(C)N1CCC2(CC1)CC(N1C(=O)c3cccc(c3)S(=O)(=O)Nc3nc(cc(-c4c(C)cccc4C)n3)OC[C@H]1CC(C)C)C2 (stereo partly drawn) [Compound 257]
- Ent. B Max Activity (%) (Table 9): +++ (+++ is >60%)
- EC50 (Table 9, read-out: Ent. B EC50): < 1000 nM

SMILES: COC(=O)NC1CC2(C1)CC(N1C(=O)c3cccc(c3)S(=O)(=O)Nc3nc(cc(-c4c(C)cccc4C)n3)OC[C@H]1CC(C)(C)C(F)(F)F)C2 (single isomer, unassigned) [Compound 75]
- Ent. B Max Activity (%) (Table 9): +++ (+++ is >60%)
- EC50 (Table 9, read-out: Ent. B EC50): < 1000 nM

SMILES: COC(=O)N1CCC2(CC1)CC(N1C(=O)c3cccc(n3)S(=O)(=O)Nc3nc(cc(-c4c(C)cccc4C)n3)OC[C@H]1CC(C)C)C2 [Compound 391]
- Ent. B Max Activity (%): +++ (+++ is >60%)
- EC50 (read-out: Ent. B EC50): < 1000 nM

SMILES: Cc1cccc(C)c1-c1cc2nc(n1)NS(=O)(=O)c1cccc(c1)C(=O)N([C@H]1C[C@@H](CNC(=O)OC(C)C)C1)[C@H](CC(C)C)CO2 (single isomer, unassigned) [Compound 107]
- Ent. B Max Activity (%) (Table 9): +++ (+++ is >60%)
- EC50 (Table 9, read-out: Ent. B EC50): < 1000 nM

SMILES: COC(=O)N1CCC(n2cc(N3C(=O)c4cccc(c4)S(=O)(=O)Nc4nc(cc(-c5c(C)cccc5C)n4)OC[C@H]3CC(C)(C)C)cn2)CC1 [Compound 223]
- Ent. B Max Activity (%) (Table 10): + (+ is <300%)
- EC50 [1]: < 1000 nM

SMILES: Cc1cccc(C)c1-c1cc2nc(n1)NS(=O)(=O)c1cccc(c1)C(=O)N([C@H]1C[C@@H](N3CC(N(C)C)C3)C1)[C@H](CC(C)C)CO2 [Compound 66, (11R)-12-[3-[3-(Dimethylamino)azetidin-1-yl]cyclobutyl]-6-(2,6-dimethylphenyl)-11-isobutyl-2,2-dioxo-9-oxa-2λ^6-thia-3,5,12,19-tetrazatricyclo[12.3.1.14,8]nonadeca-1(18),4(19),5,7,14,16-hexaen-13-one]
- Ent. B Max Activity (%) (Table 9): +++ (+++ is >60%)
- EC50 (Table 9, read-out: Ent. B EC50): < 1000 nM

SMILES: Cc1cccc(C)c1-c1cc2nc(n1)NS(=O)(=O)c1cccc(c1)C(=O)N(c1cn(C)nc1C)[C@H](CC(C)(C)C)CO2 [Compound 227]
- Ent. B Max Activity (%) (Table 10): +++ (+++ is >60%)
- EC50 [1]: < 1000 nM

SMILES: Cc1cccc(C)c1-c1cc2nc(n1)NS(=O)(=O)c1cccc(c1)C(=O)N([C@H]1C[C@](C)(NC(=O)OC(C)C)C1)[C@H](CC(C)(C)C)CO2 (stereo in doubt) [Compound 244]
- Ent. B Max Activity (%) (Table 10): ++ (++ is 30-60%)
- EC50 [1]: < 1000 nM

SMILES: Cc1cccc(C)c1-c1cc2nc(n1)NS(=O)(=O)c1cccc(c1)C(=O)N(C1CC(N(C)C)C1)[C@H](CC1(C(F)(F)F)CC1)CO2 (single isomer, unassigned) [Compound 61]
- Ent. B Max Activity (%) (Table 10): +++ (+++ is >60%)
- EC50 [1]: < 1000 nM

SMILES: CCN(C(=O)OC)C1CC(N2C(=O)c3cccc(c3)S(=O)(=O)Nc3nc(cc(-c4c(C)cccc4C)n3)OC[C@H]2CC(C)(C)C)C1 (single isomer, unassigned) [Compound 237]
- Ent. B Max Activity (%) (Table 10): ++ (++ is 30-60%)
- EC50 [1]: < 1000 nM

SMILES: Cc1cccc(C)c1-c1cc2nc(n1)NS(=O)(=O)c1cccc(c1)C(=O)N(C1CC3(CCN(C(=O)OC(C)C)CC3)C1)C[C@@H](C)O2 [Compound 181, Isopropyl 2-[(10R)-6-(2,6-dimethylphenyl)-10-methyl-2,2,13-trioxo-9-oxa-2λ^6-thia-3,5,12,19-tetrazatricyclo[12.3.1.14,8]nonadeca-1(18),4(19),5,7,14,16-hexaen-12-yl]-7-azaspiro[3.5]nonane-7-carboxylate]
- Ent. B Max Activity (%): +++ (+++ is >60%)
- EC50 (read-out: Ent. B EC50): < 1000 nM

SMILES: COC(=O)NC1CC2(C1)CC(N1C(=O)c3cccc(c3)S(=O)(=O)Nc3nc(cc(-c4c(C)cccc4C)n3)OC[C@H]1CC(C)(C)C(F)(F)F)C2 (single isomer, unassigned) [Compound 76]
- Ent. B Max Activity (%) (Table 9): +++ (+++ is >60%)
- EC50 (Table 9, read-out: Ent. B EC50): < 1000 nM

SMILES: COC(=O)N(C)[C@H]1C[C@]2(C1)C[C@H](N1C(=O)c3cccc(c3)S(=O)(=O)Nc3nc(cc(-c4c(C)cccc4C)n3)OC[C@H]1CC1(C(F)(F)F)CC1)C2 (stereo in doubt) [Compound 260]
- Ent. B Max Activity (%) (Table 9): +++ (+++ is >60%)
- EC50 (Table 9, read-out: Ent. B EC50): < 1000 nM

SMILES: Cc1cccc(C)c1-c1cc2nc(n1)NS(=O)(=O)c1cccc(c1)C(=O)N(C1CC3(COC(=O)N3C)C1)[C@H](CC(C)(C)C)CO2 (single isomer, unassigned) [Compound 174]
- Ent. B Max Activity (%) (Table 10): ++ (++ is 30-60%)
- EC50 [1]: < 1000 nM

SMILES: Cc1cccc(C)c1-c1cc2nc(n1)NS(=O)(=O)c1cccc(c1)C(=O)N(C1CC3(CCN(C(=O)OC(C)(C)C)CC3)C1)[C@H](CC(C)(C)C)CO2 [Compound 437]
- Ent. B Max Activity (%): ++ (++ is 30-60%)
- EC50 (read-out: Ent. B EC50): < 1000 nM

SMILES: Cc1cccc(C)c1-c1cc2nc(n1)NS(=O)(=O)c1cccc(c1)C(=O)N(C1CS(=O)(=O)C1)[C@H](CC(C)C)CO2 [Compound 41, (11R)-6-(2,6-Dimethylphenyl)-12-(1,1-dioxothietan-3-yl)-11-isobutyl-2,2-dioxo-9-oxa-2λ^6-thia-3,5,12,19-tetrazatricyclo[12.3.1.14,8]nonadeca-1(18),4(19),5,7,14,16-hexaen-13-one]
- Ent. B Max Activity (%) (Table 10): +++ (+++ is >60%)
- EC50 [1]: < 1000 nM

SMILES: Cc1cccc(C)c1-c1cc2nc(n1)NS(=O)(=O)c1cccc(c1)C(=O)N(C1CCN(C(=O)OC(C)C)C1)[C@H](CC(C)C)CO2 (single isomer, unassigned) [Compound 38]
- Ent. B Max Activity (%): ++ (++ is 30-60%)
- EC50 (read-out: Ent. B EC50): < 1000 nM

SMILES: CC(=O)N[C@H]1C[C@@H](N2C(=O)c3cccc(c3)S(=O)(=O)Nc3nc(cc(-c4c(C)cccc4C)n3)OC[C@H]2CC(C)C)C1 [Compound 366]
- Ent. B Max Activity (%) (Table 9): +++ (+++ is >60%)
- EC50 (Table 9, read-out: Ent. B EC50): < 1000 nM

SMILES: COCCN(C)[C@H]1C[C@]2(C1)C[C@H](N1C(=O)c3cccc(c3)S(=O)(=O)Nc3nc(cc(-c4c(C)cccc4C)n3)OC[C@H]1CC1(C(F)(F)F)CC1)C2 (stereo partly drawn) [Compound 82, (R)-1^6-(2,6-Dimethylphenyl)-6-((2S,4s,6S)-6-((2-methoxyethyl)(methyl)amino)spiro[3.3]heptan-2-yl)-7-((1-(trifluoromethyl)cyclopropyl)methyl)-9-oxa-3-thia-2,6-diaza-1(2,4)-pyrimidina-4(1,3)-benzenacyclononaphan-5-one 3,3-dioxide]
- Ent. B Max Activity (%) (Table 9): +++ (+++ is >60%)
- EC50 (Table 9, read-out: Ent. B EC50): < 1000 nM

SMILES: Cc1cccc(C)c1-c1cc2nc(n1)NS(=O)(=O)c1cccc(c1)C(=O)N([C@H]1CCN(C)C1)[C@H](CC(C)C)CO2 (stereo in doubt) [Compound 295]
- Ent. B Max Activity (%): +++ (+++ is >60%)
- EC50 (read-out: Ent. B EC50): < 1000 nM

SMILES: [H][C@]1(N2C(=O)c3cccc(c3)S(=O)(=O)Nc3nc(cc(-c4c(C)cccc4C)n3)OC[C@H]2CC(C)C)C[C@@]2(C[C@H](NC(=O)OC(C)C)C2)C1 (single isomer, unassigned) [Compound 123]
- Ent. B Max Activity (%) (Table 10): +++ (+++ is >60%)
- EC50 [1]: < 1000 nM

SMILES: COC(=O)NC1CC2(C1)CC(N1C(=O)c3cccc(c3)S(=O)(=O)Nc3nc(cc(-c4c(C)cccc4C)n3)OC[C@H]1CC(C)(C)C)C2 (single isomer, unassigned) [Compound 91]
- Ent. B Max Activity (%) (Table 9): +++ (+++ is >60%)
- EC50 (Table 9, read-out: Ent. B EC50): < 1000 nM

SMILES: COC(=O)NC1CC(N2C(=O)c3cccc(c3)S(=O)(=O)Nc3nc(cc(-c4c(C)cccc4C)n3)OC[C@H]2CC(C)(C)C(F)(F)F)C1 (stereo partly drawn) [Compound 419]
- Ent. B Max Activity (%) (Table 10): +++ (+++ is >60%)
- EC50 [1]: < 1000 nM

SMILES: CNC(=O)C1CC2(C1)CC(N1C(=O)c3cccc(c3)S(=O)(=O)Nc3nc(cc(-c4c(C)cccc4C)n3)OC[C@H]1CC(C)(C)C)C2 (stereo partly drawn) [Compound 235]
- Ent. B Max Activity (%) (Table 10): +++ (+++ is >60%)
- EC50 [1]: < 1000 nM

SMILES: Cc1cccc(C)c1-c1cc2nc(n1)NS(=O)(=O)c1cccc(c1)C(=O)N(C1CC3(CC3)C1)[C@H](CCC(C)(C)O)CO2 [Compound 52, (11R)-6-(2,6-Dimethylphenyl)-11-(3-hydroxy-3-methyl-butyl)-2,2-dioxo-12-spiro[2.3]hexan-5-yl-9-oxa-2λ^6-thia-3,5,12,19-tetrazatricyclo[12.3.1.14,8]nonadeca-1(18),4(19),5,7,14,16-hexaen-13-one]
- Ent. B Max Activity (%) (Table 10): ++ (++ is 30-60%)
- EC50 [1]: < 1000 nM

SMILES: Cc1cccc(C)c1-c1cc2nc(n1)NS(=O)(=O)c1cccc(c1)C(=O)N([C@H]1C[C@H](OC(F)(F)C(F)(F)F)C1)[C@H](CC(C)C)CO2 [Compound 211]
- Ent. B Max Activity (%) (Table 10): + (+ is <300%)

SMILES: Cc1cccc(C)c1-c1cc2nc(n1)NS(=O)(=O)c1cccc(c1)C(=O)N([C@H]1C[C@H](OC(=O)NCc3ccccc3)C1)[C@H](CC(C)C)CO2 (stereo in doubt) [Compound 362]
- Ent. B Max Activity (%) (Table 10): ++ (++ is 30-60%)
- EC50 [1]: < 1000 nM

SMILES: [H][C@]1(N2C(=O)c3cccc(c3)S(=O)(=O)Nc3nc(cc(-c4c(C)cccc4C)n3)OC[C@H]2CC(C)C)C[C@@]2(C[C@H](N(C)C(=O)OC(C)C)C2)C1 (stereo partly drawn) [Compound 284]
- Ent. B Max Activity (%) (Table 9): ++ (++ is 30-60%)
- EC50 (Table 9, read-out: Ent. B EC50): < 1000 nM

From US20230382925A1, “MODULATORS OF CYSTIC FIBROSIS TRANSMEMBRANE CONDUCTANCE REGULATOR” (VERTEX PHARMACEUTICALS INCORPORATED, priority 2020, published 2023)
